The test system of one data set is Schistosoma mansoni. The data set can be described thus: Antischistosomal activity against Schistosoma mansoni infected in golden syrian hamster assessed as worm killing at 143 uM pretreated for 45 mins followed by compound washout measured after 14 days. In kind it is functional.
Another data set relates to Schistosoma haematobium. The data set can be described thus: Antischistosomal activity against Schistosoma haematobium infected in golden syrian hamster assessed as worm killing at 143 uM pretreated for 45 mins followed by compound washout measured after 14 days. The class given is functional.
The test system of the next data set is Schistosoma japonicum. The data set is described as follows: Antischistosomal activity against Schistosoma japonicum infected in golden syrian hamster assessed as worm killing at 143 uM pretreated for 45 mins followed by compound washout measured after 14 days. The class given is functional.
Data set [1] is described as follows: Dissociation constant, pKa of the compound. In kind it is physicochemical.
Data set [2] in a line: Lipophilicity, log D of the compound. The class given is physicochemical. The settings on record: octanol/water.

The values below come from ChEMBL document CHEMBL4265999, “Design, Synthesis, and Characterization of Novel Small Molecules as Broad Range Antischistosomal Agents” (ACS Med Chem Lett, 2018).

Bounds are passed on as bounds.

In the case of `O=[N+]([O-])c1cc(NC2CCCN(Cc3ccccn3)C2)ccc1CO` (stereo not given), in the data set with Schistosoma mansoni, the Activity is 0%. `O=[N+]([O-])c1ccc(CN2CCC(Nc3ccc(CO)c([N+](=O)[O-])c3)C2)cc1` (stereo not given): the Activity in the data set on Schistosoma mansoni was found to be 17%.

Turning to `O=[N+]([O-])c1cc(NC2CCN(Cc3cccc(C(F)(F)F)c3)C2)ccc1CO` (stereo not given), the Activity in the data set with Schistosoma haematobium was 8%; in the data set on Schistosoma mansoni, 93%. On the same counts, the results for `O=[N+]([O-])c1cc(NC2CCN(Cc3ccc(C(F)(F)F)cc3)CC2)ccc1CO` are 0% and 81%. In the case of `O=[N+]([O-])c1cc(NC2CCCNC2)ccc1CO` (stereo not given), the Activity in the data set on Schistosoma mansoni is recorded as 50%. On to `O=[N+]([O-])c1cc(NC2CCN(Cc3ccccn3)C2)ccc1CO` (stereo not given), for which the Activity in the data set with Schistosoma mansoni was 0%. For the compound `O=[N+]([O-])c1cc(NC2CCCN(Cc3ccccc3)C2)ccc1CO` (stereo not given), the Activity in the data set on Schistosoma mansoni is reported as 60%. Same read-out and setting: under `O=[N+]([O-])c1cc(NC2CCN(Cc3ccccc3C(F)(F)F)C2)ccc1CO` (stereo not given) stands 27%. As to `O=[N+]([O-])c1cc(NC2CCN(Cc3ccc(C(F)(F)F)cc3)C2)ccc1CO` (stereo not given), the results for the Activity with Schistosoma haematobium and in the data set with Schistosoma mansoni were 10% and 100%, respectively. As to `O=[N+]([O-])c1cc(NC2CCCN(Cc3ccc(OC(F)(F)F)cc3)C2)ccc1CO` (stereo not given), the Activity is reported as 10% in the data set with Schistosoma japonicum, 43% with Schistosoma haematobium and 40% in the data set on Schistosoma mansoni.

Regarding `O=[N+]([O-])c1cc(NC2CCN(Cc3ccccc3)C2)ccc1CO` (stereo not given), the Activity in the data set with Schistosoma mansoni was found to be 75%. As to `COc1ccccc1CN1CCC(Nc2ccc(CO)c([N+](=O)[O-])c2)C1` (stereo not given), the Activity with Schistosoma mansoni is recorded as 7%.

The pKa is the negative logarithm of the acid dissociation constant. High values mean a group that holds its proton tightly, low ones a group that gives up its proton readily. One may read the logD as lipophilicity at a set pH, counting ionised and neutral species. In turn, `O=[N+]([O-])c1cc(NC2CCCN(Cc3ccccc3C(F)(F)F)C2)ccc1CO` (stereo not given) came in with a pKa in data set [1] of 5.9. Also, the results for the Activity in the data set on Schistosoma japonicum, in the data set on Schistosoma haematobium and in the data set with Schistosoma mansoni were 83%, 40% and 75%, respectively. Further, in data set [2], the logD stood at 3.27. With `Cn1cncc1CN1CCCC(Nc2ccc(CO)c([N+](=O)[O-])c2)C1` (stereo not given), the Activity in the data set on Schistosoma mansoni amounted to 20%.

On to `O=[N+]([O-])c1cc(NC2CCN(Cc3ccccc3C(F)(F)F)CC2)ccc1CO`, for which the Activity in the data set on Schistosoma mansoni is 20%.

In the case of `O=[N+]([O-])c1cc(NC2CCN(Cc3ccc(OC(F)(F)F)cc3)CC2)ccc1CO`, the figures for the Activity in the data set with Schistosoma haematobium and with Schistosoma mansoni were 14% and 97%, respectively. Turning to `CC(C)N1CCC(Nc2ccc(CO)c([N+](=O)[O-])c2)C1` (stereo not given), in the data set with Schistosoma mansoni, the Activity was 40%. Still for that read-out and setting: the same measure for `O=[N+]([O-])c1cc(NC2CCCN(CCc3ccccc3)C2)ccc1CO` (stereo not given): 40%; for `O=[N+]([O-])c1cc(NC2CCN(Cc3c[nH]c4ccccc34)C2)ccc1CO` (stereo not given): 85%. For the compound `O=[N+]([O-])c1cc(NC2CCN(Cc3ccccc3OC(F)(F)F)C2)ccc1CO` (stereo not given), the Activity is under 40% in the data set with Schistosoma haematobium and 100% with Schistosoma mansoni.

`O=[N+]([O-])c1cc(NC2CCN(Cc3cccc(OC(F)(F)F)c3)C2)ccc1CO` (stereo not given): in the data set with Schistosoma mansoni, the Activity is listed as 60%.

Take `CC(C)N1CCCC(Nc2ccc(CO)c([N+](=O)[O-])c2)C1` (stereo not given): the Activity with Schistosoma mansoni is 10%. Regarding `O=[N+]([O-])c1cc(NC2CCCN(Cc3ccccc3OC(F)(F)F)C2)ccc1CO` (stereo not given), the Activity was under 40% with Schistosoma haematobium and 84% in the data set with Schistosoma mansoni.

Turning to `Cn1cncc1CN1CCC(Nc2ccc(CO)c([N+](=O)[O-])c2)C1` (stereo not given), the Activity in the data set with Schistosoma mansoni is 0%. The same measure, in the same setting: under `O=[N+]([O-])c1cc(NC2CCN(Cc3ccccc3F)C2)ccc1CO` (stereo not given) stands 30%. Consider `O=[N+]([O-])c1cc(NC2CCN(Cc3ccc(OC(F)(F)F)cc3)C2)ccc1CO` (stereo not given), for which the figures for the Activity in the data set on Schistosoma japonicum, with Schistosoma haematobium and in the data set on Schistosoma mansoni were 0%, 40% and 87%, respectively.

As to `O=[N+]([O-])c1cc(NC2CCN(Cc3ccc(Cl)cc3Cl)C2)ccc1CO` (stereo not given), the Activity in the data set on Schistosoma mansoni is on record as 17%. For the compound `O=[N+]([O-])c1cc(NC2CCN(CCc3ccccc3)C2)ccc1CO` (stereo not given), in the data set on Schistosoma mansoni, the Activity worked out at 7%.

For `O=[N+]([O-])c1cc(NC2CCCN(Cc3cccc(C(F)(F)F)c3)C2)ccc1CO` (stereo not given), the Activity in the data set with Schistosoma japonicum worked out at 2%; in the data set on Schistosoma haematobium, 2%; with Schistosoma mansoni it was 100%. Regarding `O=[N+]([O-])c1cc(NC2CCNC2)ccc1CO` (stereo not given), the Activity in the data set with Schistosoma mansoni amounted to 10%.

In the case of `O=[N+]([O-])c1cc(NC2CCCN(Cc3c[nH]c4ccccc34)C2)ccc1CO` (stereo not given), the Activity with Schistosoma mansoni is given as 26%.

In the case of `CC(C)NCC1CCc2cc(CO)c([N+](=O)[O-])cc2N1` (stereo not given) [OXAMNIQUINE], the Activity in the data set with Schistosoma japonicum was 0%; in the data set on Schistosoma haematobium it was 0%; in the data set on Schistosoma mansoni, 50 - 85%.
